The record followed here is patent publication US6476076B1 (priority 1999, dated 2002).

Structures are written as SMILES.

A word on the ED50: it is the dose that gives a 50% effect, or the effect in half of the subjects. Usually EC50 stands for the concentration that produces a half-maximal response.

In data set [1] the test system is acetic acid-induced writhing in ICR mice. As to the kind of experiment: animal or person. The class given is in vivo, mouse. To be noted: for ED50: Mus musculus, ip, read-out: Writhing Test ED50.
In the next data set the test system is DRG neurons. Briefly: cells. The class given is cell-based. The conditions noted are these: Rattus norvegicus, DRG neuron, 10 min, read-out: 45Ca Influx EC50.
Data set [2] concerns PBQ-induced writhing in ICR mice. Briefly: animal or person. In kind it is in vivo, mouse.
For data set [3], the system named is TPA-induced ear edema in ICR mice. The conditions noted are these: mouse, in vivo.
Data set [4] deals with rat eye (eye-wiping response). The conditions noted are these: in vivo.

On to `COc1cc(CNC(=S)NCC(COC(=O)C(C)(C)C)Cc2ccc(C(C)(C)C)cc2)ccc1OCC(=O)O` (stereo not drawn) [19b, 2,2-Dimethyl-propionic Acid 3-(4-t-Butyl-phenyl)-2-[3-(4-carboxymethoxy-3-methoxy-benzyl)-thioureidomethyl]-propyl Ester], for which the ED50 in data set [1] was found to be 0.365 mg/kg. For the same compound, in the data set on DRG neurons, the EC50 was determined as 12300 ± 1580 nM.

As to `COc1cc(CNC(=S)NCC(COC(=O)C(C)(C)C)Cc2ccc(C)c(C)c2)ccc1OC(=O)CCC(=O)O` (stereo not drawn) [23a, Succinic Acid Mono-(4-{3-[3-(3,4-dimethyl-phenyl)-2-(2,2-dimethyl-propionyloxymethyl)-propyl]-thioureidomethyl}-2-methoxy-phenyl) Ester], the ED50 in data set [1] was determined as 0.0531 mg/kg. Besides, the EC50 in the data set on DRG neurons was determined as 7040 ± 1300 nM.

Take `COc1cc(CNC(=S)NCC(COC(=O)C(C)(C)C)Cc2ccc(C(C)(C)C)cc2)ccc1OC(=O)CCC(=O)O` (stereo not drawn) [23b, Succinic Acid Mono-(4-{3-[3-(4-t-butyl-phenyl)-2-(2,2-dimethylpropionyloxymethyl)-propyl]-thioureidomethyl}-2-methoxy-phenyl) Ester]: the ED50 in data set [1] is 0.06 mg/kg. In addition, the EC50 with DRG neurons was 7000 ± 1200 nM.

Take `COc1cc(CC(=O)NCC(COC(=O)C(C)(C)C)Cc2ccc(C)c(C)c2)ccc1OCCN` (stereo not drawn) [28a, 2,2-Dimethyl Propionic Acid 2-({2-[4-(2-Aminoethoxy)-3-methoxyphenyl]acetylamino}methyl)-3-(3,4-dimethylphenyl)propyl Ester]: the ED50 in data set [1] worked out at 0.00096 mg/kg. In addition, the “analgesic activity (in words)” value in data set [1] (mouse, in vivo) is “the most potent one and more potent than DA-5018”. Moreover, the EC50 with DRG neurons worked out at 1570 ± 230 nM.

Regarding `COc1cc(CC(=O)NCC(COC(=O)C(C)(C)C)Cc2ccc(C(C)(C)C)cc2)ccc1OCCN` (stereo not drawn) [28b, 2,2-Dimethyl Propionic Acid 2-({2-[4-(2-Aminoethoxy)-3-methoxyphenyl]acetylamino}methyl)-3-(4-t-butylphenyl)propyl Ester], the ED50 in data set [1] came out at 0.00812 mg/kg. Further, the EC50 in the data set on DRG neurons came to 878 ± 170 nM.

As for `COc1cc(CNC(=S)NCC(COC(=O)C(C)(C)C)Cc2ccc(C)c(C)c2)ccc1OCCN` (stereo not drawn) [36a, 2,2-Dimethyl Propionic Acid 2-{3-[4-(2-Aminoethoxy)-3-methoxybenzyl]thioureido Methyl}-3-(3,4-dimethylphenyl)propyl Ester], the ED50 in data set [1] is 0.014 mg/kg. For the same compound, the EC50 in the data set on DRG neurons was 83 ± 12 nM.

On to `COc1cc(CNC(=S)NCC(COC(=O)C(C)(C)C)Cc2ccc(C(C)(C)C)cc2)ccc1OCCN` (stereo not drawn) [36b, 2,2-Dimethyl Propionic Acid 2-{3-[4-(2-Aminoethoxy)-3-methoxybenzyl]thioureido Methyl}-3-(4-t-butylphenyl)propyl Ester], for which the ED50 in data set [1] came to 0.0482 mg/kg. Further, the EC50 in the data set on DRG neurons came to 377 ± 67 nM.

With `COc1cc(CC(=O)NCCCc2ccc(C)c(C)c2)ccc1OCCN` [DA-5018, 2-[4-(2-aminoethoxy)-3-methoxyphenyl]-N-[3-(3,4-dimethylphenyl)propyl]acetamide, reference compound], in data set [2] (Mus musculus, ip, read-out: Writhing Test ED50), the ED50 amounted to 3 µg/kg. The “Relative Potency (Writhing Test)” value in data set [2] (mouse, in vivo) came to 100. In addition, in data set [1], the ED50 worked out at 0.00227 mg/kg. In data set [3], the “Ear Edema Assay ID50” value came out at 200 μg/ear, the “Relative Potency (Ear Edema Assay)” value is 0.015 and the “antiinflammatory activity in the TPA ear edema assay (in words)” value is on record as “weak topical activity”. Further, in data set [4], the “MPP: moderate pain-producing potency” value is 0.003% and the “RPP: relative pain-producing potency” value was 10. Besides, the EC50 in the data set on DRG neurons was found to be 234 nM.
